Values quoted from earlier work as cited in paper PMC4061760 (Tetrahedron, 2009).

System: Plk1 PBD
Conditions: 5-mer phosphopeptide

## PLHSpT [Peptide 22]
  interaction with the Plk1 PBD: specifically interacts with the Plk1 PBD with high affinity
